Assay results: US6810371B1 (priority 1906, dated 2004)
Read-outs that look alike come from different tables or passages of the source.

Assays:
[1] = Estimated exposure amount of inhabitants (inhalation, percutaneous, oral); conditions: for estimated PERCUTANEOUS exposure amount: contact area 4.0 m^2/day; for estimated exposure amount in INHALATION (WINDOW CLOSED): exposure time 24 h/day; for estimated exposure amount in INHALATION (WINDOW OPEN): window opened for 5 minutes after spraying; for estimated ORAL exposure amount: hand surface area ratio about 5 %, oral transference ratio 100 %
Text: estimated exposure amount in inhalation [mg/kg/day]=mean concentration in indoor air [mg/m^3]×amount of respiration [m^3/kg/min]×exposure time [min/day]
estimated percutaneous exposure amount [mg/kg/day]=(mean residual amount [mg/m^2]×skin attachment ratio [%]×contact area [m^2/day])/body weight [kg]
estimated oral exposure amount [mg/kg/day]=estimated percutaneous exposure amount [mg/kg/day]×hand surface area ratio [%]×oral transference ratio [%]
Here, the mean indoor respiration amount of Japanese is 0.220 [L/min/kg] for an adult, and 0.235 [L/min/kg] for an infant. Also, the exposure time was presumed to be 24 [h/day], taking account of the worst case where inhabitants are confined in the room for 24 hours after spraying.
In the table, “window closed” refers to the case where the window is closed throughout the exposure time, whereas “window open” refers to the case where spraying was effected in the state with the closed window and then the window was opened for 5 minutes (Example 3).
Here, it was assumed that the contact area for an infant and an adult was 4.0 [m^2/day], the body weight of the infant was 10.2 [kg], and the body weight of the adult was 50 [kg]. […] These values were used for calculating the estimated percutaneous exposure amount.
Here, while the hand surface area ratio was assumed to be about 5[%], and the oral transference ratio was presumed to be the worst case of 100[%], only the estimated oral exposure amount of the infant was calculated.

[2] = Procedure: Finally, if it is judged to be safe at S8, S12, or S15, overall safety is evaluated. Here, the sum of respective reciprocals of the previously determined inhalation safety coefficient, percutaneous safety coefficient, and oral safety coefficient is determined, and the reciprocal of thus determined value is defined as an overall safety coefficient (S16).
inhalation safety coefficient=inhalation non-influential amount [mg/kg/day]/estimated exposure amount in inhalation [mg/kg/day]
percutaneous safety coefficient=percutaneous non-influential amount [mg/kg/day]/estimated percutaneous exposure amount [mg/kg/day]
oral safety coefficient=oral non-influential amount [mg/kg/day]/estimated oral exposure amount [mg/kg/day]

[3] = system: rat; assay: Non-influential amount of a rat (inhalation, percutaneous, oral toxicity tests); type: in vivo; conditions: for non-influential in-air concentration: 4-week inhalation test (d-phenothrin 4 h/day, 6 days a week; d-tetramethrin 3 h/day, 7 days a week); for non-influential amount in inhalation: 4-week test (d-phenothrin 4 h/day, 6 days a week; d-tetramethrin 3 h/day, 7 days a week), respiration 0.365 L/min/kg; for non-influential amount for oral exposure: 6-month test; for non-influential amount for percutaneous exposure: 21-day test
Text: (6-month test) for oral exposure. […] (6-month test) for oral exposure.

[4] = ADULT, respiration 0.220 L/min/kg
[5] = INFANT, respiration 0.235 L/min/kg

SMILES | estimated PERCUTANEOUS exposure amount ([1]; ADULT, body weight 50 kg) | estimated exposure amount in INHALATION (WINDOW CLOSED) [1, 4] | estimated exposure amount in INHALATION (WINDOW OPEN) ([1]; ADULT) | estimated PERCUTANEOUS exposure amount ([1]; INFANT, body weight 10.2 kg) | estimated exposure amount in INHALATION (WINDOW CLOSED) [1, 5] | estimated ORAL exposure amount ([1]; INFANT) | estimated exposure amount in INHALATION (WINDOW OPEN) ([1]; INFANT) | non-influential in-air concentration [3] [mg/m^3] | non-influential amount in inhalation [3] [mg/kg/day] | non-influential amount for oral exposure [3] [mg/kg/day] | non-influential amount for percutaneous exposure [3] [mg/kg/day] | other results
CC(C)=CC1[C@@H](C(=O)OCc2cccc(Oc3ccccc3)c2)C1(C)C (stereo in doubt) [d-phenothrin] | 0.553 | 0.744 | 0.149 | 2.71 | 0.795 | 0.135 | 0.159 | 210 | 18.4 | 125 | 1000 | INHALATION (WINDOW CLOSED) safety coefficient ([2]; ADULT): 24,700; INHALATION (WINDOW OPEN) safety coefficient ([2]; ADULT): 124,000; PERCUTANEOUS safety coefficient ([2]; ADULT): 1,810,000; TOTAL (WINDOW CLOSED) safety coefficient ([2]; ADULT): 24,400; TOTAL (WINDOW OPEN) safety coefficient ([2]; ADULT): 116,000; INHALATION (WINDOW CLOSED) safety coefficient ([2]; INFANT): 23,100; INHALATION (WINDOW OPEN) safety coefficient ([2]; INFANT): 116,000; ORAL safety coefficient ([2]; INFANT): 923,000; PERCUTANEOUS safety coefficient ([2]; INFANT): 369,000; TOTAL (WINDOW CLOSED) safety coefficient ([2]; INFANT): 21,300; TOTAL (WINDOW OPEN) safety coefficient ([2]; INFANT): 80,400
CC(C)=CC1[C@@H](C(=O)OCN2C(=O)C3=C(CCCC3)C2=O)C1(C)C (stereo in doubt) [d-tetramethrin] | 0.438 | 1.01 | 0.202 | 2.15 | 1.12 | 0.107 | 0.224 | 49 | 3.22 | 10.75 | 1000 | 
